Data as given in patent US20070172453A1, “Tolerogenic approach for type 1 diabetes” (priority 2002, published 2007).

Legend:
PBMCs [1] = assay: IL10 transcription in PBMCs by TaqMan real-time PCR; assay type: cell-based, human; settings: 50 μM, 20 hours
Protocol: Total RNA was extracted with the RNeasy Mini Kit (Qiagen, Calif., USA) from PBMCs isolated from 10 healthy controls and from 11 Type 1 diabetics, and cultured for 20 hours with IGF-2 B11-25 (SEQ ID NO:2)(50 μM) or Insulin B9-23 (SEQ ID NO:3 ) (50 μM). Total RNA was measured with a Nanodrop (NanoDrop Technologies, Wilmington, USA). Reverse transcription was performed with Transcriptor First Strand cDNA Synthesis Kit (Roche, Germany). PCR was performed with the following probes:
IL10 transcripts were then quantified using a TaqMan procedure. Standard curves were established from a lot of plasmid containing IL10 according to the procedure described by other authors (Giulietti et al., Methods 25: 386, 2001). […] A strong positive relationship was evidenced between IL-10 concentrations as measured by ELISA and the number of IL10 transcripts as quantified by real-time PCR (R^2=0.62, P<0.0001; Spearman's test). Conclusions

[2] = test system: peripheral blood mononuclear cells (PBMCs); assay: ELISpot of IL-10 secreting cells in PBMCs from healthy controls and adult Type 1 diabetics; assay type: cell-based, human; settings: 50 μM, 48h
Protocol: In comparison to the Insulin B9-23 peptide (SEQ ID NO:3), the presentation of IGF-2 B11-25 (SEQ ID NO:2) increases the number of IL-10 secreting cells in peripheral blood mononuclear cells (PBMCs) from adult Type I diabetics. PBMCs were isolated by a conventional method from the blood of 6 healthy controls and 18 adult Type 1 diabetic patients. The PBMCs were cultured for 48h in 96-well dishes in the presence of IGF-2 B11-25 (SEQ ID NO:2)(50 μM) or […] (50 μM).
The data are presented in FIG. 4 as the number of spots per 10^5 cells. Statistical analyses were performed using Wilcoxon's test.

PBMCs [3] = assay: IL-10 concentration in PBMC culture supernatants by ELISA; assay type: cell-based, human; settings: 20h-culture
Protocol: PBMCs were isolated from the blood of 10 healthy controls and 13 adult type 1 diabetics. After a 20h-culture, IL-10 concentration in the supernatants was measured using a specific ELISA (BioSource, Nivelles, Belgium).

[4] = test system: spleen cells from Igf2-/- and wt mice; assay: IL-2 production by IGF-2-specific T cells (spleen cells) after immunization and in vitro stimulation; assay type: cell-based, mouse; settings: spleen cells in culture with murine IGF-2-derived B11-25 after two i.p. injections
Protocol: (§1) Mice immunization. Igf2^−/− and wt mice were injected i.p. with 5 μg of rmIGF-2 (R&D Systems) or with 5 μg of human insulin (Roche) to study the humoral response and with 50 μg of murine IGF-2-derived B11-25 (NEOSYSTEM)(SEQ ID NO:2) to analyze the cellular response. CFA (Sigma-Aldrich) (v/v) is used for the first injection and IFA (Sigma-Aldrich) (v/v) for the other injections. For humoral response, three injections separated by 20 days were performed. Blood test was performed 15 days after each injection in agreement with the Liege University ethic committee. For cellular response, two injections separated by 15 days were performed.
IL-2 production. After 48, 72, and 96 h of MLR or after 24 and 48 h of specific T cell culture, 800 μl were removed of each condition and IL-2 production released by Igf2^−/− and wt T cells in MLR was assessed by specific ELISA (Biosource Europe).
Statistical analyses. The t test was used to compare Igf2^−/− and wt mice in IL-2 production and Ab production after immunization. The level of significance was p<0.05.

[5] = test system: peripheral blood mononuclear cells (PBMCs); assay: ELISPOT of IFN-γ and IL-10 secreting cells in PBMCs of DQ8+ type 1 diabetic adolescents; assay type: cell-based, human; settings: for number of IFN-γ secreting cells / number of IL-10 secreting cells / ratio of IL-10/IFN-γ: peptide 50 μM, DQ8+ type 1 diabetic adolescents; for number of IFN-γ secreting cells / number of IL-10 secreting cells: 48 hours, 1×10^5 PBMCs/well, ±SEM
Protocol: Ten diabetic patients were selected (6 females, 4 males; age range: 7-16 years of age) which were positive for the DQ8 allele. With the assistance of endocrine pediatricians, appropriate arrangements were made for two sampling sessions. Written and informed consent was obtained from the parents of the adolescents. For each patient, 20 ml of blood was collected in tubes containing EDTA. These tubes were immediately sent to Cypro SA (Brussels) where peripheral blood mononuclear cells (PBMCs) were isolated using the Lymphoprep™ (Invitrogen) isolation technique.
ELISPOT Assays (Cypro): The general methodology has been described by Tary-Lehmann et al. (see, e.g., Tary-Lahmann et al. (1998) Transplantation 66:219-224). Briefly, PBMCs were seeded at a concentration of 1×10^5/well in 96-well plates coated with anti-human IFN-γ monoclonal antibody (mAb) (Serpime/Nodia) or anti-IL-10 mAb (BD-Pharmingen) in the presence or absence of either PHA (Sigma, 1 μg/ml)+LPS (Sigma, 1 μg/ml), Purified Protein Derivative (PPD, 5 μg/ml), Insulin B9-23 (SEQ ID NO:3 ) (10 and 50 μM), IGF-2 B11-25 (SEQ ID NO:2 )(10 and 50 μM After 48 hours of incubation at 37° C., 5% CO2 on a plane surface, wells were washed three times with PBS Tween 0.25%, then blot dried.
After 1 hour-incubation in a humid room at ambient temperature, the plates were washed and the substrate AEC (3-amino-9-ethylcarazole)+30% H2O2 were added. After 15 minutes (for IFN-γ) or 30 minutes (for IL-10) of incubation at ambient temperature, spots appeared and the reaction was stopped by washing the plates under water. After drying, the spots were counted by image analyzer assisted by computer with filters specific for each cytokine.
A Wilcoxon test was used for statistical analyses (non-parametric paired values).

Igf2-/- and wt mice [6] = assay: Anti-IGF-2 humoral response after i.p. immunization of Igf2-/- and wt mice (ELISA); assay type: in vivo, mouse; settings: i.p. immunization 5 μg
Protocol: as §1
(§2) Dosage of anti-IGF-2 and anti-insulin Abs. Abs against IGF-2 and insulin were detected and quantified using a specific ELISA procedure. Microplates (Nunc Maxisorp 468667; VVWR International) were incubated overnight at 4° C. with 2 μg/ml rmIGF-2 (R&D Systems) or 5 μg/ml human insulin (Roche) in 100 μl of 0.1 M NaHCO3 (pH 8.4). From this step, the procedure was identical between the two kinds of ELISA. SL buffer (0.01 M phosphate buffer, pH 7.4) was used as the basic buffer, and all reactions were incubated at 37° C. under agitation. […] The reaction was stopped with 50 μl of 0.4 N HCl, and the absorbance was measured at 450-620 nm with a spectrophotometer.

[7] = test system: CD4-mediated, HLA-II restricted immune response; settings: patients with IDDM; cited from earlier work
NOD mice = settings: cited from earlier work
Igf2-/- and wt mice [8] = assay: Anti-insulin humoral response after i.p. immunization of Igf2-/- and wt mice (ELISA); assay type: in vivo, mouse; settings: three i.p. injections, mice with day 0 anti-insulin Ab lower than 1 in OD
Protocol: as §1
as §2, with “spectrophotometer. […]” for “spectrophotometer.”

[9] = cited from earlier work

## GELVDTLQFVCGDRG (listed as Homo sapiens) [IGF-2 B11-25]
PBMCs [1]; PBMCs from adult Type 1 diabetics
  IL10 transcription: very significantly increases
PBMCs [1]; PBMCs from healthy controls
  IL10 transcription: very significantly increases
[2]; PBMCs from healthy controls
  number of IL-10 secreting cells versus Insulin B9-23: no significant difference
[2]; PBMCs of adult Type 1 diabetics
  number of IL-10 secreting cells versus Insulin B9-23: significantly higher
PBMCs [3]; PBMC cultures from Type 1 diabetics
  IL-10 concentration in supernatants versus basal conditions or Insulin B9-23: significantly increased
PBMCs [3]; PBMC cultures from healthy controls
  IL-10 concentration in supernatants versus basal conditions or Insulin B9-23: significantly increased
[4]
  IL-2 production, Igf2-/- compared with wt mice: significant increase of IL-2 production
[5]; 50 μM, versus insulin B9-23
  ratio IL-10/IFN-γ, fold higher than after insulin B9-23: ~7 fold
[5]
  number of IFN-γ secreting cells: 45.60±11.67
  number of IL-10 secreting cells: 1162±208.6
  ratio of IL-10/IFN-γ: 67.36±37.58

## IGF-2: rmIGF-2 (R&D Systems), insulin-like growth factor 2 used for mice immunization
Igf2-/- and wt mice [6]; Igf2-deficient mice
  anti-IGF-2 humoral response: rapidly induced anti-IGF-2 Abs
Igf2-/- and wt mice [6]; wt mice
  anti-IGF-2 T-dependent humoral response (IgG1, IgG2a, IgG2b): no T-dependent response was observed

## SHLVEALYLVCGERG (listed as Homo sapiens) [insulin B9-23, reference compound]
[7]
  IFN-γ production in response to peptide presentation: high production of IFN-γ
[5]
  number of IFN-γ secreting cells: 88.90±23.82
  number of IL-10 secreting cells: 701.8±160.9
  ratio of IL-10/IFN-γ: 10.22±1.99
NOD mice
  anaphylaxis: induces fatal anaphylaxis
  incidence of diabetes: accelerates incidence of diabetes

## insulin: human insulin (Roche) for mice immunization; insulin given orally or subcutaneously in cited trials
Igf2-/- and wt mice [8]
  anti-insulin Ig-specific humoral response, Igf2-/- compared with Igf2+/+ mice: higher anti-insulin Ig-specific humoral response
[9]; oral administration, recent-onset IDDM
  protection of residual β cell function: failed to protect the residual β cell function
[9]; subcutaneous administration, high-risk relatives of patients with IDDM
  delay or prevention of onset of disease: did not delay or prevent the onset of disease
